Test results reported in US20100204128A1, “NOVEL PEPTIDES” (SANARE INVESTMENT AS, priority 2007, published 2010).
“And” between values parts separate entries of the source, which are not always exact repeats. Equal entries are not always repeated.

Tests used:
Format in all cases: cell-based
Details in all cases: 24 hours, duplicate wells
[1] = test system: T47D cells; assay: AlmarBlue fluorescence cell growth test, T47D cells
Procedure: (§1) Re-feed media were prepared to yield the following final six concentrations of each of the 12 peptides: 5×10^−3, 5×10^−4, 5×10^−5, 5×10^−6, 5×10^−7, and 5×10^−8M. […] With that, the 5×10^−3M mixture contains about 0.42×10^−3M of each peptide. […] With that, the 5×10^−3M mixture contains about 0.42×10^−3M of each of said 8 peptides.
(§2) MCF-7 and T47D cells were seeded into 96-well plates at a density of 10,000 cells per well in 90 μL of appropriate culture medium. TMX2-28 cells were seeded into 96-well plates at a density of 5,000 cells per well in 90 μL of appropriate culture medium. Plates were placed in a 37° C., 5% CO2 incubator and cells were allowed to attach to the bottom of the well for 24 hours after which 10 μL of the appropriate refeed medium was added. Each concentration was tested in duplicate in each cell line. […] Cells were then incubated for 24 hours. Subsequently 10 μL of AlmarBlue (Biosource) was added to each well. After three hours, the fluorescence was detected using a Packard Instrument Plate Reader with 535/20 excitation and 590/20 emission filters.

[2] = test system: MCF-7 cells; assay: AlmarBlue fluorescence cell growth test, MCF-7 cells
Procedure: as §1, §2

[3] = test system: TMX2-28 cells; assay: AlmarBlue fluorescence cell growth test, TMX2-28 cells
Procedure: With that, the 5×10^−3M mixture contains about 0.42×10^−3M of each peptide. Furthermore, mixtures containing equal volumes of peptides SEQ ID NO:2-SEQ ID NO:7, SEQ ID NO:10 and SEQ ID NO:11 were also prepared (equal volumes of said re-feed media) to yield the following final six concentrations: […] With that, the 5×10^−3M mixture contains about […].
as §2

[4] = 5 × 10^−4 M (mixtures: total concentration), decrease vs DC5 = reduced cell growth
[5] = 5 × 10^−5 M (mixtures: total concentration)
[6] = 5 × 10^−6 M (mixtures: total concentration)
[7] = 5 × 10^−7 M (mixtures: total concentration)
[8] = 5 × 10^−8 M (mixtures: total concentration)
[9] = 5 × 10^−9 M (mixtures: total concentration)

SEQIDNO5: synthesised peptide identified in the 10 kDa blood fraction after acupuncture; sequence not printed in the text (REVQGAFLRFMACLLKGYRV; Derived from human blood sample)
fluorescent readings [1, 4]: 54287 and 54068 | fluorescent readings [1, 5]: 61500 and 65566 | fluorescent readings [1, 6]: 63089 and 64735 | fluorescent readings [1, 7]: 64043 and 64408 | fluorescent readings [1, 8]: 62339 and 63402 | fluorescent readings [1, 9]: 61350 and 61820 | fluorescent readings [2, 4]: 56679 and 54497 | fluorescent readings [2, 5]: 61089 and 62458 | fluorescent readings [2, 6]: 61618 and 65571 | fluorescent readings [2, 7]: 61677 and 66372 | fluorescent readings [2, 8]: 62738 and 64281 | fluorescent readings [2, 9]: 57537 and 60120 | fluorescent readings [3, 4]: 27056 and 29836 | fluorescent readings [3, 5]: 62564 and 67140 | fluorescent readings [3, 6]: 67405 and 69619 | fluorescent readings [3, 7]: 69438 and 69605 | fluorescent readings [3, 8]: 70141 and 70591 | fluorescent readings [3, 9]: 69376 and 67302

SEQIDNO10: synthesised peptide identified in the 10 kDa blood fraction after acupuncture; sequence not printed in the text (GGVLSPADKTNVK; Derived from human blood sample)
fluorescent readings [1, 4]: 58905 and 62040 | fluorescent readings [1, 5]: 62235 and 61799 | fluorescent readings [1, 6]: 61232 and 61422 | fluorescent readings [1, 7]: 61576 and 62488 | fluorescent readings [1, 8]: 62058 and 61865 | fluorescent readings [1, 9]: 63213 and 64672 | fluorescent readings [2, 4]: 66888 and 71581 | fluorescent readings [2, 5]: 67041 and 68134 | fluorescent readings [2, 6]: 68442 and 69458 | fluorescent readings [2, 7]: 67343 and 65315 | fluorescent readings [2, 8]: 62238 and 64184 | fluorescent readings [2, 9]: 62410 and 63264 | fluorescent readings [3, 4]: 74950 and 67668 | fluorescent readings [3, 5]: 70143 and 70096 | fluorescent readings [3, 6]: 68926 and 71006 | fluorescent readings [3, 7]: 68674 and 69541 | fluorescent readings [3, 8]: 67904 and 70174 | fluorescent readings [3, 9]: 64358 and 65678

SEQIDNO11: synthesised peptide identified in the 10 kDa blood fraction after acupuncture; sequence not printed in the text (TLAGENQTALEIEELNRK; Derived from human blood sample)
fluorescent readings [1, 4]: 61976 and 62453 | fluorescent readings [1, 5]: 61546 and 64267 | fluorescent readings [1, 6]: 62448 and 60200 | fluorescent readings [1, 7]: 62557 and 63900 | fluorescent readings [1, 8]: 62018 and 64649 | fluorescent readings [1, 9]: 63935 and 65696 | fluorescent readings [2, 4]: 65114 and 72373 | fluorescent readings [2, 5]: 65947 and 68983 | fluorescent readings [2, 6]: 64058 and 64030 | fluorescent readings [2, 7]: 63837 and 64861 | fluorescent readings [2, 8]: 60430 and 65118 | fluorescent readings [2, 9]: 60886 and 63795 | fluorescent readings [3, 4]: 66600 and 67446 | fluorescent readings [3, 5]: 67045 and 66528 | fluorescent readings [3, 6]: 66568 and 64759 | fluorescent readings [3, 7]: 64371 and 65373 | fluorescent readings [3, 8]: 65587 and 66707 | fluorescent readings [3, 9]: 64433 and 65703

SEQIDNO12: synthesised peptide identified in the 10 kDa blood fraction after acupuncture; sequence not printed in the text (PVLTLDMPSSERGK; Derived from human blood sample)
fluorescent readings [1, 4]: 57184 and 62215 | fluorescent readings [1, 5]: 62230 and 62786 | fluorescent readings [1, 6]: 64065 and 63826 | fluorescent readings [1, 7]: 64023 and 65295 | fluorescent readings [1, 8]: 65019 and 65289 | fluorescent readings [1, 9]: 62179 and 65227 | fluorescent readings [2, 4]: 64634 and 66223 | fluorescent readings [2, 5]: 67452 and 68292 | fluorescent readings [2, 6]: 67604 and 67923 | fluorescent readings [2, 7]: 65967 and 68650 | fluorescent readings [2, 8]: 64530 and 64993 | fluorescent readings [2, 9]: 59810 and 61717 | fluorescent readings [3, 4]: 64801 and 66313 | fluorescent readings [3, 5]: 67335 and 67800 | fluorescent readings [3, 6]: 69868 and 69586 | fluorescent readings [3, 7]: 67062 and 68845 | fluorescent readings [3, 8]: 68382 and 67167 | fluorescent readings [3, 9]: 66458 and 66191

SEQIDNO7: synthesised peptide identified in the 10 kDa blood fraction after acupuncture; sequence not printed in the text (RMSIQCDVWRSKFLASRV; Derived from human blood sample)
fluorescent readings [1, 4]: 62688 and 60767 | fluorescent readings [1, 5]: 68041 and 64777 | fluorescent readings [1, 6]: 66479 and 60908 | fluorescent readings [1, 7]: 65388 and 63864 | fluorescent readings [1, 8]: 64353 and 63685 | fluorescent readings [1, 9]: 64124 and 63134 | fluorescent readings [2, 4]: 64171 and 62704 | fluorescent readings [2, 5]: 67257 and 64433 | fluorescent readings [2, 6]: 66311 and 66105 | fluorescent readings [2, 7]: 63995 and 67019 | fluorescent readings [2, 8]: 65755 and 66292 | fluorescent readings [2, 9]: 60589 and 62763 | fluorescent readings [3, 4]: 58887 and 60090 | fluorescent readings [3, 5]: 64931 and 66366 | fluorescent readings [3, 6]: 68010 and 67591 | fluorescent readings [3, 7]: 68325 and 70586 | fluorescent readings [3, 8]: 67109 and 70471 | fluorescent readings [3, 9]: 62010 and 66328
